Measured values published in patent US20240158446A1, “CYCLIC COMPOUND HAVING SELECTIVE INHIBITORY ACTION ON KRAS OVER HRAS AND NRAS” (CHUGAI SEIYAKU KABUSHIKI KAISHA, priority 2021, published 2024).
Read-outs that look alike come from different tables or passages of the source. Where a SMILES comes first, the peptide text is derived from it. Bridges are numbered along the chain shown (N, C = ends). [ ]: non-standard residue; d: D form. The star is where a group is joined. hPhe(3-Cl-4-CF3) = N[C@@H](CCc1ccc(C(F)(F)F)c(Cl)c1)C(=O)O; NPrPhe(4-CF3) = CCCN[C@@H](Cc1ccc(C(F)(F)F)cc1)C(=O)O; NMeGly(cPent) = CN[C@H](C(=O)O)C1CCCC1; Gly(cPent) = N[C@H](C(=O)O)C1CCCC1; Hyp = O=C(O)[C@@H]1C[C@@H](O)CN1; NMeD = CN[C@@H](CC(=O)O)C(=O)O; NMeL = CN[C@@H](CC(C)C)C(=O)O; Morpholide = C1CN(*)CCO1; NMeA = CN[C@@H](C)C(=O)O; dNMeA = CN[C@H](C)C(=O)O; Ac5c = NC1(C(=O)O)CCCC1; Aze = O=C(O)[C@@H]1CCN1; Ac4c = NC1(C(=O)O)CCC1; NEtG = CCNCC(=O)O; Sar = CNCC(=O)O

What was measured:
[1] = target: GDP-bound KRAS wild-type protein (Homo sapiens, UniProt P01116); assay: Binding to KRAS by surface plasmon resonance (SPR), Single Cycle Kinetics; conditions: GDP-bound KRAS wild-type protein, read-out: KRAS KD
[2] = target: GDP-bound NRAS wild-type protein (Homo sapiens, UniProt P01111); assay: Binding to NRAS by surface plasmon resonance (SPR), Single Cycle Kinetics; conditions: for NRAS/KRAS (ratio of KD value with respect to GDP-bound NRAS wild-type protein to KD value with respect to KRAS): SPR KD ratio NRAS/KRAS, class symbols
[3] = target: GDP-bound HRAS wild-type protein (Homo sapiens, UniProt P01112); assay: Binding to HRAS by surface plasmon resonance (SPR), Single Cycle Kinetics; conditions: for HRAS/KRAS (ratio of KD value with respect to GDP-bound HRAS wild-type protein to KD value with respect to KRAS): SPR KD ratio HRAS/KRAS, class symbols
[4] = SPR Single Cycle Kinetics, 1:1 binding model
[5] = SPR, GDP-bound NRAS wild-type protein vs GDP-bound KRAS wild-type protein
[6] = SPR, GDP-bound HRAS wild-type protein vs GDP-bound KRAS wild-type protein

GDP-bound KRAS wild-type protein, sequence (P01116 whole entry): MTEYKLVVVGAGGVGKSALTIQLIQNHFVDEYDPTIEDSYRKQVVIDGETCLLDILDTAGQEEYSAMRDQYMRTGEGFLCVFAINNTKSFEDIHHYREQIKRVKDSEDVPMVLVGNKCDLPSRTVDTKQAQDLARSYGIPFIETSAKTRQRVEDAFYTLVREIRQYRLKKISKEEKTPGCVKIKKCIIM
GDP-bound NRAS wild-type protein, sequence (P01111 whole entry): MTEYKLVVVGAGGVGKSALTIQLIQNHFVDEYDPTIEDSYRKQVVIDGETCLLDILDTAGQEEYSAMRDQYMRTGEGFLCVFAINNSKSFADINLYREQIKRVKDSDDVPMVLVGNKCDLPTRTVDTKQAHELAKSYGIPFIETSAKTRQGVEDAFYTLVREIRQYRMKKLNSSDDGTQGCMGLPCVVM
GDP-bound HRAS wild-type protein, sequence (P01112 whole entry): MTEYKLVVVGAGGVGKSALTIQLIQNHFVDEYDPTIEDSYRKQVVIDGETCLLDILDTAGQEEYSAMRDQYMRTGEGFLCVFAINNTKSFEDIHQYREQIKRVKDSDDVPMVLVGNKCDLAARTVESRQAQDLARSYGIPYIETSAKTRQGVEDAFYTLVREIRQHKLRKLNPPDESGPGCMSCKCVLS

| SMILES | Kd [1, 4] [nM] | NRAS/KRAS (ratio of KD value for NRAS to KD value for KRAS) [2, 5] | HRAS/KRAS (ratio of KD value for HRAS to KD value for KRAS) [3, 6] | Kd ([1]; SPR, Single Cycle Kinetics) [nM] | further results |
| --- | --- | --- | --- | --- | --- |
| CCCN1C(=O)[C@@H]2CCN2C(=O)[C@H](C)N(C)C(=O)[C@H](C2CCCC2)NC(=O)[C@H](CC(C)C)N(C)C(=O)C[C@@H](C(=O)N2CCOCC2)N(C)C(=O)[C@H](C2CCCC2)N(C)C(=O)C2(CCCC2)NC(=O)[C@@H]2CCCN2C(=O)[C@H](CCc2ccc(C(F)(F)F)c(Cl)c2)NC(=O)CN(C)C(=O)[C@@H]1Cc1ccc(C(F)(F)F)cc1 [PP0272] ([NMeL][Gly(cPent)][NMeA][Aze][NPrPhe(4-CF3)][Sar][hPhe(3-Cl-4-CF3)]P[Ac5c][NMeGly(cPent)][NMeD]-Morpholide; lactam N-11) | 0.17 | C (A compound having a KD ratio of 0.1 or more and less than 3 is denoted as C) | B (a compound having 3 or more and less than 10 is denoted as B) | – | – |
| CCCC[C@H]1C(=O)N[C@@H]([C@@H](C)CC)C(=O)N(C)CC(=O)N(C)[C@H]2C/C=C\CCN(C2=O)[C@@H](Cc2ccc(C)cc2)C(=O)N(C)CC(=O)N[C@@H](CCc2cc(F)c(C(F)(F)F)c(F)c2)C(=O)N2C[C@H](OCC)C[C@H]2C(=O)NC2(CCC2)C(=O)N(C)[C@@H](C2CCCC2)C(=O)N(C)[C@H](C(=O)N(C)C)CC(=O)N1C [PP2798] | 0.075 | – | – | – | NRAS/KRAS (ratio of KD value with respect to GDP-bound NRAS wild-type protein to KD value with respect to KRAS) [2]: A (a compound having 10 or more and less than 20 is denoted as A); HRAS/KRAS (ratio of KD value with respect to GDP-bound HRAS wild-type protein to KD value with respect to KRAS) [3]: A (a compound having 10 or more and less than 20 is denoted as A) |
| CCCN1C(=O)CN(C)C(=O)CN(C)C(=O)[C@H]([C@@H](C)CC)NC(=O)[C@H](CC(C)C)N(C)C(=O)C[C@@H](C(=O)N2CCOCC2)N(C)C(=O)[C@H](C2CCCC2)N(C)C(=O)C2(CCCC2)NC(=O)[C@@H]2CCCN2C(=O)[C@H](CCc2ccc(C(F)(F)F)c(Cl)c2)NC(=O)[C@@H](C)N(C)C(=O)[C@@H]1Cc1ccc(C(F)(F)F)cc1 [PP0148] ([NMeL]I[Sar][Sar][NPrPhe(4-CF3)][dNMeA][hPhe(3-Cl-4-CF3)]P[Ac5c][NMeGly(cPent)][NMeD]-Morpholide; lactam N-11) | 3.4 | B (a compound having 3 or more and less than 10 is denoted as B) | B (a compound having 3 or more and less than 10 is denoted as B) | – | – |
| CCO[C@@H]1C[C@H]2C(=O)NC3(CCC3)C(=O)N(C)[C@@H](C3CCCC3)C(=O)N(C)[C@H](C(=O)N(C)CCOC)CC(=O)N(C)[C@@H](CC3CC3)C(=O)N[C@@H]([C@@H](C)CC)C(=O)N(C)CC(=O)N(C)[C@H]3C/C=C\CCN(C3=O)[C@@H](Cc3ccc(C(F)(F)F)cc3)C(=O)N(C)CC(=O)N[C@@H](CCc3ccc(C(F)(F)F)c(OC)c3)C(=O)N2C1 [PP1327] | – | – | – | – | Kd ([1]; SPR, Single Cycle Kinetics, 1:1 binding model): 0.11 nM; NRAS/KRAS (ratio of KD value for NRAS to KD value for KRAS) ([2]; SPR, GDP-bound NRAS wild-type protein vs GDP-bound KRAS wild-type protein, KD ratio class): A (a compound having 10 or more and less than 20 is denoted as A); HRAS/KRAS (ratio of KD value for HRAS to KD value for KRAS) ([3]; SPR, GDP-bound HRAS wild-type protein vs GDP-bound KRAS wild-type protein, KD ratio class): A (a compound having 10 or more and less than 20 is denoted as A) |
| CCO[C@@H]1C[C@H]2C(=O)NC3(CCC3)C(=O)N(C)[C@@H](C3CCCC3)C(=O)N(C)[C@H](C(=O)N(C)C)CC(=O)N(C)[C@@H](CC3CCCC3)C(=O)N[C@@H]([C@@H](C)CC)C(=O)N(C)CC(=O)N(C)[C@H]3C/C=C\CCN(C3=O)[C@@H](Cc3ccc(C)cc3)C(=O)N(C)CC(=O)N[C@@H](CCc3ccc(C4CC4)c(F)c3)C(=O)N2C1 [PP2683] | 0.87 | – | – | – | NRAS/KRAS (ratio of KD value with respect to GDP-bound NRAS wild-type protein to KD value with respect to KRAS) [2]: A (a compound having 10 or more and less than 20 is denoted as A); HRAS/KRAS (ratio of KD value with respect to GDP-bound HRAS wild-type protein to KD value with respect to KRAS) [3]: A (a compound having 10 or more and less than 20 is denoted as A) |
| CCCN1C(=O)CN(C)C(=O)CN(CC)C(=O)[C@H]([C@@H](C)CC)NC(=O)[C@H](CC(C)C)N(C)C(=O)C[C@@H](C(=O)N2CCOCC2)N(C)C(=O)[C@H](C2CCCC2)N(C)C(=O)C2(CCC2)NC(=O)[C@@H]2C[C@@H](OCC)CN2C(=O)[C@H](CCc2ccc(C(F)(F)F)c(Cl)c2)NC(=O)CN(C)C(=O)[C@@H]1Cc1ccc(C(F)(F)F)cc1 [PP0401] ([NMeL]I[NEtG][Sar][NPrPhe(4-CF3)][Sar][hPhe(3-Cl-4-CF3)][Hyp](Et)[Ac4c][NMeGly(cPent)][NMeD]-Morpholide; lactam N-11) | 0.15 | B (a compound having 3 or more and less than 10 is denoted as B) | B (a compound having 3 or more and less than 10 is denoted as B) | – | – |
| CCCN1C(=O)CN(C)C(=O)CN(C)C(=O)[C@H]([C@@H](C)CC)NC(=O)[C@H](CC(C)C)N(C)C(=O)C[C@@H](C(=O)N2CCOCC2)NC(=O)[C@H](C2CCCC2)N(C)C(=O)C2(CCC2)NC(=O)[C@@H]2C[C@@H](OCC)CN2C(=O)[C@H](CCc2ccc(C(F)(F)F)c(Cl)c2)NC(=O)CN(C)C(=O)[C@@H]1Cc1ccc(C(F)(F)F)cc1 [PP0324] ([NMeL]I[Sar][Sar][NPrPhe(4-CF3)][Sar][hPhe(3-Cl-4-CF3)][Hyp](Et)[Ac4c][NMeGly(cPent)]D-Morpholide; lactam N-11) | 0.41 | B (a compound having 3 or more and less than 10 is denoted as B) | B (a compound having 3 or more and less than 10 is denoted as B) | – | – |
| CCO[C@@H]1C[C@H]2C(=O)NC3(CCC3)C(=O)N(C)[C@@H](C3CCCC3)C(=O)N(C)[C@H](C(=O)N(C)C)CC(=O)N(C)[C@@H](CSC)C(=O)N[C@@H]([C@@H](C)CC)C(=O)N(C)CC(=O)N(C)[C@H]3C/C=C\CCN(C3=O)[C@@H](Cc3ccc(C(F)(F)F)cc3)C(=O)N(C)CC(=O)N[C@@H](CCc3cc(F)c(C(F)(F)F)c(F)c3)C(=O)N2C1 [PP1119, (2S,8S,12R,14S,20S,23S,27R,30S,36S,38Z)-20-cyclopentyl-8-[2-[3,5-difluoro-4-(trifluoromethyl)phenyl]ethyl]-12-ethoxy-N,N,4,19,22,26,32,35-octamethyl-30-[(1S)-1-methylpropyl]-27-(methylsulfanylmethyl)-3,6,9,15,18,21,25,28,31,34,42-undecaoxo-2-[[4-(trifluoromethyl)phenyl]methyl]spiro[1,4,7,10,16,19,22,26,29,32,35-undecazatricyclo[34.5.1.0^10,14]dotetracont-38-ene-17,1′-cyclobutane]-23-carboxamide] | – | A (a compound having 10 or more and less than 20 is denoted as A) | A (a compound having 10 or more and less than 20 is denoted as A) | 0.037 | – |
| CCO[C@@H]1C[C@H]2C(=O)NC3(CC(C)(C)C3)C(=O)N(C)[C@@H](C(CC)CC)C(=O)N(C)[C@H](C(=O)N(C)C)CC(=O)N(C)[C@@H](C(C)C)C(=O)N[C@@H]([C@@H](C)CC)C(=O)N(C)CC(=O)N(C)[C@H]3C/C=C\CCN(C3=O)[C@@H](Cc3ccc(C(F)(F)F)cc3)C(=O)N(C)CC(=O)N[C@@H](CCc3cc(F)c(C(F)(F)F)c(F)c3)C(=O)N2C1 [PP2135] | – | AA (a compound having 20 or more is denoted as AA) | A (a compound having 10 or more and less than 20 is denoted as A) | 0.49 | – |
| CCC(CC)[C@@H]1NC(=O)[C@H](CC(C)C)N(C)C(=O)C[C@@H](C(=O)N2CCOCC2)N(C)C(=O)[C@H](C2CCCC2)N(C)C(=O)C2(CCCC2)NC(=O)[C@@H]2CCCN2C(=O)[C@H](CCc2cc(F)c(C(F)(F)F)c(F)c2)NC(=O)CN(C)C(=O)[C@H](Cc2ccc(C(F)(F)F)cc2)N2CCCC[C@@H](C2=O)N(C)C(=O)CN(C)C1=O [PP0597] | 0.33 | – | – | – | NRAS/KRAS (ratio of KD value with respect to NRAS to KD value with respect to KRAS) [2, 5]: B (a compound having 3 or more and less than 10 is denoted as B); HRAS/KRAS (ratio of KD value with respect to HRAS to KD value with respect to KRAS) [3, 6]: B (a compound having 3 or more and less than 10 is denoted as B) |
| CCO[C@@H]1C[C@H]2C(=O)NC3(CCCC3)C(=O)N(C)[C@@H](C3CCCC3)C(=O)N(C)[C@H](C(=O)N3CCOCC3)CC(=O)N(C)[C@@H](CC(C)C)C(=O)N[C@@H]([C@@H](C)CC)C(=O)N(C)CC(=O)N(C)[C@H]3C[C@@H](C)CCN(C3=O)[C@@H](Cc3ccc(C(F)(F)F)cc3)C(=O)N(C)CC(=O)N[C@@H](CCc3cc(F)c(C(F)(F)F)c(F)c3)C(=O)N2C1 [PP1024] | – | B (a compound having 3 or more and less than 10 is denoted as B) | B (a compound having 3 or more and less than 10 is denoted as B) | 0.088 | – |
| CCCN1C(=O)[C@@H]2CCN2C(=O)[C@H](C)N(C)C(=O)[C@H]([C@@H](C)CC)NC(=O)[C@H](CC(C)C)N(C)C(=O)C[C@@H](C(=O)N2CCOCC2)NC(=O)[C@H](C2CCCC2)N(C)C(=O)C2(CCCC2)NC(=O)[C@@H]2CCCN2C(=O)[C@H](CCc2ccc(C(F)(F)F)c(Cl)c2)NC(=O)CN(C)C(=O)[C@@H]1Cc1ccc(C(F)(F)F)cc1 [PP0343] ([NMeL]I[NMeA][Aze][NPrPhe(4-CF3)][Sar][hPhe(3-Cl-4-CF3)]P[Ac5c][NMeGly(cPent)]D-Morpholide; lactam N-11) | 1.3 | C (A compound having a KD ratio of 0.1 or more and less than 3 is denoted as C) | B (a compound having 3 or more and less than 10 is denoted as B) | – | – |
| CCO[C@@H]1C[C@H]2C(=O)NC3(CC(C)(C)C3)C(=O)N(C)[C@@H](C(CC)CC)C(=O)N(C)[C@H](C(=O)N3CCCC3)CC(=O)N(C)[C@@H](C)C(=O)N[C@@H]([C@@H](C)CC)C(=O)N(C)CC(=O)N(C)[C@H]3C/C=C\CCN(C3=O)[C@@H](Cc3ccc(C)cc3)C(=O)N(C)CC(=O)N[C@@H](CCc3cc(F)c(C(F)(F)F)c(F)c3)C(=O)N2C1 [PP2145] | – | A (a compound having 10 or more and less than 20 is denoted as A) | A (a compound having 10 or more and less than 20 is denoted as A) | 0.39 | – |
